Laboratory results: patent US20230148599A1, “FUNGICIDAL MIXTURES CONTAINING PYRAZOLE DERIVATIVES” (FMC Corporation, priority 2020, published 2023)

How the values were obtained:
Format in all cases: in vivo
[1] = test system: Alternaria solani; assay: Test F1 (comparative): tomato early blight, tomato seedlings; conditions: 100 = 100% disease control
Description: (§1) General protocol for preparing test suspensions for Tests A1-F1: the test compounds were first dissolved in acetone in an amount equal to 3% of the final volume and then suspended at the desired concentration (in ppm) in acetone and purified water (50/50 mix by volume) containing 250 ppm of the surfactant PEG400 (polyhydric alcohol esters). The resulting test suspensions were then used in Tests A1-F1.
(§2) The test suspension was sprayed to the point of run-off on tomato seedlings. The following day the seedlings were inoculated with a spore suspension of Alternaria solani (the causal agent of tomato early blight) and incubated in a saturated atmosphere at 27° C. for 48 h, and then moved to a growth chamber at 20° C. for 3 days, after which time visual disease ratings were made.
(§3) A rating of 100 indicates 100% disease control and a rating of 0 indicates no disease control (relative to the controls).

[2] = test system: Puccinia recondita f. sp. tritici; assay: Test B1 (comparative): wheat leaf rust, wheat seedlings; conditions: 100 = 100% disease control
Description: as §1
The test solution was sprayed to the point of run-off on wheat seedlings. The following day the seedlings were inoculated with a spore suspension of Puccinia recondita f. sp. tritici (the causal agent of wheat leaf rust) and incubated in a saturated atmosphere at 20° C. for 24 h, and then moved to a growth chamber at 20° C. for 7 days, after which time disease ratings were made.
as §3

[3] = test system: Septoria tritici; assay: Test A1 (comparative): wheat leaf blotch, wheat seedlings; conditions: 100 = 100% disease control, 0 = no control
Description: as §1
The test solution was sprayed to the point of run-off on wheat seedlings. The following day the seedlings were inoculated with a spore suspension of Septoria tritici (the causal agent of wheat leaf blotch) and incubated in a saturated atmosphere at 24° C. for 48 h, and then moved to a growth chamber at 20° C. for 17 days, after which time disease ratings were made.
as §3

[4] = test system: Blumeria graminis f. sp. tritici; assay: Test C1 (comparative): wheat powdery mildew, wheat seedlings; conditions: 100 = 100% disease control
Description: as §1
The test suspension was sprayed to the point of run-off on wheat seedlings. The following day the seedlings were inoculated with a spore dust of Blumeria graminis f. sp. tritici, (also known as Erysiphe graminis f. sp. tritici, the causal agent of wheat powdery mildew) and incubated in a growth chamber at 20° C. for 8 days, after which time visual disease ratings were made.
as §3

[5] = test system: Botrytis cinerea; assay: Test E1 (comparative): tomato Botrytis, tomato seedlings; conditions: 100 = 100% disease control
Description: as §1
as §2, with “Botrytis cinerea” for “Alternaria solani”, “Botrytis)” for “early blight)”, “20°” for “27°”, “24°” for “20°”
as §3

[6] = test system: Botrytis cinerea; assay: Test E: tomato Botrytis, preventive spray on tomato seedlings; conditions: 50 ppm, 100 = 100% disease control, 0 = no control
In short: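 Compound suspended in 50/50 acetone/water with 250 ppm PEG400 surfactant and sprayed to run-off on tomato seedlings; Botrytis cinerea spores applied the next day. Incubation 48 h at 20° C in saturated atmosphere, then 3 days at 24° C. Visual rating 0–100% disease control relative to controls.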

[7] = test system: Blumeria graminis f. sp. tritici; assay: Test C: wheat powdery mildew, preventive spray on wheat seedlings; conditions: 50 ppm, 100 = 100% disease control, 0 = no control
In short: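 Seedlings were sprayed to run-off with compound suspended (ppm) in 50/50 acetone–water containing 250 ppm PEG400, then spore-dust inoculated the following day. After 8 days at 20° C, disease control was rated visually from 0 to 100 against controls.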

[8] = test system: Alternaria solani; assay: Test F: tomato early blight, preventive spray on tomato seedlings; conditions: 50 ppm, 100 = 100% disease control, 0 = no control
In short: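 Tomato seedlings were sprayed to run-off with compound suspended in acetone/water (50/50) with 250 ppm PEG400 and inoculated with Alternaria solani spores the next day. Plants were held 48 h at 27 °C in saturated humidity, then 3 days at 20 °C. Disease control was rated visually from 0 to 100 against untreated controls.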

[9] = test system: Phakopsora pachyrhizi; assay: Test D: Asian soybean rust, preventive spray on soybean seedlings; conditions: 50 ppm, 100 = 100% disease control, 0 = no control
In short: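 Compounds in acetone/water (50/50) with 250 ppm PEG400, dosed in ppm, sprayed to run-off on soybean seedlings; inoculated with P. pachyrhizi spores next day. Held 24 h at 22 °C in saturated air, then 8 days at 22 °C; visual rating of disease control, 0–100, relative to untreated controls.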

[10] = test system: Septoria tritici; assay: Test A: wheat leaf blotch, preventive spray on wheat seedlings; conditions: 50 ppm, 100 = 100% disease control, 0 = no control
In short: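 Wheat seedlings sprayed to run-off with compound suspended in acetone/water with 250 ppm PEG400 surfactant, inoculated next day with Septoria tritici spores. Held 48 h saturated at 24 °C, then 17 days at 20 °C; disease rated 0–100% control relative to controls.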

[11] = test system: Puccinia recondita f. sp. tritici; assay: Test B: wheat leaf rust, preventive spray on wheat seedlings; conditions: 50 ppm, 100 = 100% disease control, 0 = no control
In short: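 Wheat seedlings were sprayed to run-off with compound suspended at ppm concentrations in acetone/water containing 250 ppm PEG400. The next day they were inoculated with Puccinia recondita f. sp. tritici spores, held saturated at 20 °C for 24 h, then kept 7 days at 20 °C. Disease control was rated 0–100% relative to untreated controls.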

Compound	Test F1 disease control rating ([1]; Rate 10 ppm)	Test F1 disease control rating ([1]; Rate 50 ppm)	Test B1 disease control rating ([2]; Rate 10 ppm)	Test B1 disease control rating ([2]; Rate 50 ppm)	Test A1 disease control rating ([3]; Rate 10 ppm)	Test A1 disease control rating ([3]; Rate 50 ppm)	Test C1 disease control rating ([4]; Rate 10 ppm)	Test C1 disease control rating ([4]; Rate 50 ppm)	Test E1 disease control rating ([5]; Rate 10 ppm)	Test E1 disease control rating ([5]; Rate 50 ppm)	Test E disease control rating [6]	Test C disease control rating [7]	Test F disease control rating [8]	Test D disease control rating [9]	Test A disease control rating [10]	Test B disease control rating [11]
Cc1nn(C)c(Nc2ccc([N+](=O)[O-])cc2F)c1-c1ccc(F)cc1Cl [Cmpd. from WO 2010/101973, reference compound]	0%	0%	0%	0%	45%	91%	0%	0%	0%	40%	–	–	–	–	–	–
COc1ccc(-c2c(C)nn(C)c2Nc2c(F)cc(C)cc2[N+](=O)[O-])c(Cl)c1 [compound 188]	–	–	–	–	–	–	–	–	–	–	100%	94%	100%	84%	100%	100%
Cc1nn(C)c(Nc2ccccc2[N+](=O)[O-])c1-c1ccc(Cl)cc1Cl [compound 189]	–	–	–	–	–	–	–	–	–	–	99%	57%	0%	0%	99%	68%
Cc1nn(C)c(Nc2ccccc2[N+](=O)[O-])c1-c1ccc(F)cc1F [compound 190]	–	–	–	–	–	–	–	–	–	–	100%	91%	9%	0%	100%	32%
Cc1nn(C)c(Nc2c(F)cc(Br)cc2[N+](=O)[O-])c1-c1ccc(F)cc1Br [compound 191]	–	–	–	–	–	–	–	–	–	–	100%	99%	100%	13%	100%	100%
Cc1nn(C)c(Nc2c(F)cccc2[N+](=O)[O-])c1-c1ccc([N+](=O)[O-])cc1Cl [compound 192]	–	–	–	–	–	–	–	–	–	–	99%	76%	93%	19%	100%	99%
Cc1cc(F)c(Nc2c(-c3c(F)cc(F)cc3Cl)c(C)nn2C)c([N+](=O)[O-])c1 [compound 193]	–	–	–	–	–	–	–	–	–	–	99%	100%	100%	99%	100%	100%
Cc1cc(F)c(Nc2c(-c3c(F)cc(F)cc3F)c(C)nn2C)c([N+](=O)[O-])c1 [compound 194]	–	–	–	–	–	–	–	–	–	–	99%	100%	100%	99%	100%	100%
Cc1ccc(Nc2c(-c3c(F)cccc3Cl)c(C)nn2C)c([N+](=O)[O-])c1 [compound 195]	–	–	–	–	–	–	–	–	–	–	98%	97%	73%	0%	100%	98%
Cc1ccc(Nc2c(-c3c(F)cc(F)cc3Br)c(C)nn2C)c([N+](=O)[O-])c1 [compound 196]	–	–	–	–	–	–	–	–	–	–	98%	98%	91%	0%	100%	99%
COc1ccc(Nc2c(-c3c(F)cccc3Cl)c(C)nn2C)c([N+](=O)[O-])c1 [compound 197]	–	–	–	–	–	–	–	–	–	–	98%	93%	98%	0%	100%	99%
Cc1cc(F)c(Nc2c(-c3ccc(C#N)cc3F)c(C)nn2C)c([N+](=O)[O-])c1 [compound 198]	–	–	–	–	–	–	–	–	–	–	99%	95%	100%	89%	99%	99%
Cc1nn(C)c(Nc2c(F)cc(F)cc2[N+](=O)[O-])c1-c1c(F)cc(F)cc1Cl [compound 199]	–	–	–	–	–	–	–	–	–	–	99%	100%	100%	100%	99%	100%
Cc1cc(F)c(Nc2c(-c3c(F)cc(C#N)cc3F)c(C)nn2C)c([N+](=O)[O-])c1 [compound 200]	–	–	–	–	–	–	–	–	–	–	98%	99%	100%	100%	99%	100%
Cc1cc(F)c(Nc2c(-c3c(F)cccc3Cl)c(C)nn2C)c([N+](=O)[O-])c1 [compound 201]	–	–	–	–	–	–	–	–	–	–	99%	99%	99%	98%	100%	100%
